Columns and labels:
Type in all cases: in vivo
Aphis gossypii = assay: Test Example 1: foliar spray on cucumber seedling inoculated with Aphis gossypii; details: 144 h, 500 ppm active ingredient, 20 ml sprayed on cucumber seedling, 6 days after spraying
Description: On the other hand, on a cucumber seedling (the first true leaf stage) planted in a plastic cup was inoculated with about 30 Aphis gossypii (whole stage), and leaving it for a day. Twenty (20) ml of each test solution was sprayed on the seedling. Six (6) days after spraying, the number of the surviving Aphis gossypii parasitized on the leaves of the cucumber was examined, and a control value was calculated according to the following equation: Controlling value (%)={1−(Cb×Tai)/(Cai×Tb)}×100 wherein the symbols in the above equation represent as follows: Cb: the number of insects in a non-treated section before treatment Cai: the number of insects in a non-treated section on observation Tb: the number of insects in a treated section before treatment Tai: the number of insects in a […] the non-treated section represents a section where the test diluted solution prepared by diluting the formulation without the present compound as in Formulation Example 5 with the same amount of water as in the treated-section was used.

Nilaparvata lugens [1] = assay: Test Example 3: spray on rice seedling, Nilaparvata lugens larvae released; details: 144 h, 10 ml sprayed on rice seedling, third-fourth instar larvae, after 6 days
Description: On the other hand, a rice seedling (the second leaf stage) planted in a polyethylene cup was sprayed with 10 ml of each test solution. After air-drying, 20 third-fourth instar larvae of Nilaparvata lugens were released, and kept in the greenhouse of 25° C. After 6 days, the number of insect of living Nilaparvata lugens parasitized on the rice was examined, and a control value was calculated according to the following equation: Controlling value (%)={1−(Cb×Tai)/(Cai×Tb)}×100 wherein the symbols in the above equation represent as follows: Cb: the number of insects in a non-treated section before treatment Cai: the number of insects in a non-treated section on observation Tb: the number of insects in a treated section before treatment Tai: the number of insects in a […] the non-treated section represents a section where the test diluted solution prepared by diluting the formulation without the present compound as in Formulation Example 5 with the same amount of water as in the treated-section was used.

Nilaparvata lugens [2] = assay: Test Example 4: soil drench of rice seedling, Nilaparvata lugens larvae released; details: 144 h, 5 ml drench at foot of rice seedling, larvae released after 7 days, counted 6 days later
Description: On the other hand, a rice seedling (2 weeks after sowing, the second leaf stage) planted in a plastic cup was drenched at its foot with 5 ml of each test solution, and kept in a greenhouse of 25° C. for 7 days. Twenty (20) third-fourth instar larvae of Nilaparvata lugens were released, and further kept in the greenhouse for 6 days, then the number of insect of living Nilaparvata lugens parasitized on the rice was examined, and a control value was calculated according to the following equation: Controlling value (%)={1−(Cb×Tai)/(Cai×Tb)}×100 wherein the symbols in the above equation represent as follows: Cb: the number of insects in a non-treated section before treatment Cai: the number of insects in a non-treated section on observation Tb: the number of insects in a treated section before treatment Tai: the number of insects in a […] the non-treated section represents a section where the test diluted solution prepared by diluting the formulation without the present compound as in Formulation Example 5 with the same amount of water as in the treated-section was used.

Plutella xylostella = assay: Test Example 6: spray on cabbage, Plutella xylostella larvae released; details: 120 h, 20 mL/cup sprayed on cabbage, second instar larvae, 25° C., 5 days, read-out: death rate
Description: Each test solution was prepared by diluting a formulation containing any of the present compounds 1-4, 1-5, 1-6, 1-8, 1-9, 1-10, 1-16, 1-18, 1-19, 1-20, 1-29, 1-46, 1-48, 1-49, 1-50, 1-63 and 1-76 as obtained in Formulation Example 5, with water so as to give 500 ppm of the concentration of the active ingredient.
On the other hand, Cabbage (the third leaf stage) planted in a polyethylene cup was sprayed with 20 mL/cup of each test solution. After the test solution was dried, the aerial part was cut off, and then placed in a 50 mL volume cup. Five (5) second instar larvae of Plutella xylostella were released into the cup, and the cup was sealed with a lid. After the cup was kept at 25° C. for 5 days, the number of living insects was counted. A death rate was calculated according to the following equation: Death rate (%)=(Number of dead insects/Number of tested insects)×100

Musca domestica = assay: Test Example 8: treated filter paper with sucrose bait, Musca domestica; details: 500 ppm, 0.7 ml on filter paper, female imagoes, after 24 hours
Description: Each test solution was prepared by diluting a formulation containing any of the present compounds 1-4, 1-6, 1-8, 1-9, 1-10, 1-63 and 1-95 as obtained in Formulation Example 5, with water so as to give 500 ppm of the concentration of the active ingredient.
(§1) A filter paper having a diameter of 5.5 cm was spread on the bottom of a polyethylene cup having a diameter of 5.5 cm and each test solution (0.7 ml) was added dropwise onto the filter paper. As a bait sucrose (30 mg) was uniformly placed on the filter paper. Into the polyethylene cup, 10 female imagoes of Musca domestica were released and the cup was sealed with a lid. After 24 hours, the number of surviving Musca domestica was examined and the death rate of the pest was calculated according to the following equation: Death rate (%)=(Number of dead insects/Number of tested insects)×100

Laodelphax striatella = assay: Test Example 12: spray on rice seedling, Laodelphax striatella larvae released; details: 50 ppm, 10 ml sprayed on rice seedling, third instar larvae, after 5 days; method equation is a death rate
Description: (§2) Any of the present compounds 1-6, 1-8, 1-9 and 1-10 (10 mg) was dissolved in a mixed solution (0.1 ml) of xylene, DMF and Sorpol® 3005X (manufactured by Toho Chemical Industry Co., Ltd.) in a ratio of 4:4:1 to obtain a formulation. Each formulation was diluted with water so as to give 50 ppm of the concentration of the active ingredient.
(§3) On the other hand, a rice seedling (2.5 leaf stage) planted in a polyethylene cup was sprayed with 10 ml of each test solution. After air-drying the seedling, 10 third instar larvae of Laodelphax striatella were released, and kept in the greenhouse of 25° C. After 5 days, the number of living insects was counted. A death rate was calculated according to the following equation: Death rate (%)={10−(Number of living insects after 5 days)/10}×100

Sogatella furcifera = assay: Test Example 13: spray on rice seedling, Sogatella furcifera larvae released; details: 50 ppm, 10 ml sprayed on rice seedling, third instar larvae, after 5 days; method equation is a death rate
Description: as §2
as §3, with “Sogatella furcifera” for “Laodelphax striatella”, “days)/10}×100 As a result, in the treated-section using each test solution containing each of the present compounds 1-6, 1-8, 1-9 and 1-10, the control value was 100%.” for “days)/10}×100”

Blattalla germanica = assay: Test Example 9: treated filter paper with sucrose bait, Blattalla germanica; details: 500 ppm, 0.7 ml on filter paper, male imagoes, after 6 hours
Description: Each test solution was prepared by diluting a formulation containing any of the present compounds 1-9 and 1-19 as obtained in Formulation Example 5, with water so as to give 500 ppm of the concentration of the active ingredient.
as §1, with “Sucrose (30 mg) as” for “As”, “bait” for “bait sucrose (30 mg)”, “2 male” for “10 female”, “Blattalla germanica” for “Musca domestica”, “6” for “24”

SMILES	pest or weed control at 500 ppm (Aphis gossypii) [%]	pest or weed control at 500 ppm (Nilaparvata lugens [1]) [%]	pest or weed control at 500 ppm (Nilaparvata lugens [2]) [%]	pest or weed control at 500 ppm (Plutella xylostella) [%]	death rate (Musca domestica) [%]	control value (Laodelphax striatella) [%]	control value (Sogatella furcifera) [%]	death rate (Blattalla germanica) [%]
CCS(=O)(=O)c1cccnc1-c1nc2cc([S+]([O-])C(F)(F)F)cnc2o1 (centres unmarked) [present compound 1-4, 2-(3-ethylsulfonylpyridin-2-yl)-6-(trifluoromethylsulfinyl)oxazolo[5,4-b]pyridine]	≥ 90	≥ 90	≥ 90	≥ 80	100	–	–	–
CCS(=O)(=O)c1cccnc1-c1nc2cc(S(=O)(=O)C(F)(F)F)cnc2o1 [present compound 1-5, 2-(3-ethylsulfonylpyridin-2-yl)-6-(trifluoromethylsulfonyl)oxazolo[5,4-b]pyridine]	≥ 90	–	–	≥ 80	–	–	–	–
CCSc1cccnc1-c1nc2cc(SC(F)(F)F)ccc2o1 [present compound 1-6, 2-(3-ethylsulfanylpyridine-2-yl)-5-(trifluoromethylsulfanyl)benzoxazole]	≥ 90	≥ 90	≥ 90	≥ 80	100	100	100	–
CCS(=O)(=O)c1cccnc1-c1nc2cc(SC(F)(F)F)ccc2o1 [present compound 1-8, 2-(3-ethylsulfonylpyridin-2-yl)-5-(trifluoromethylsulfanyl)benzoxazole]	≥ 90	≥ 90	≥ 90	≥ 80	100	100	100	–
CCS(=O)(=O)c1cccnc1-c1nc2cc([S+]([O-])C(F)(F)F)ccc2o1 (centres unmarked) [present compound 1-9, 2-(3-ethylsulfonylpyridin-2-yl)-5-(trifluoromethylsulfinyl)benzoxazole]	≥ 90	≥ 90	≥ 90	≥ 80	100	100	100	100
CCS(=O)(=O)c1cccnc1-c1nc2cc(S(=O)(=O)C(F)(F)F)ccc2o1 [present compound 1-10, 2-(3-ethylsulfonylpyridin-2-yl)-5-(trifluoromethylsulfonyl)benzoxazole]	≥ 90	≥ 90	≥ 90	≥ 80	100	100	100	–
CCSc1cc(C(F)(F)F)cnc1-c1nc2cc(SC(F)(F)F)ccc2o1 [present compound 1-16, 2-(3-ethylsulfanyl-5-trifluoromethylpyridine-2-yl)-5-(trifluoromethylsulfanyl)benzoxazole]	–	–	–	≥ 80	–	–	–	–
CCS(=O)(=O)c1cc(C(F)(F)F)cnc1-c1nc2cc(SC(F)(F)F)ccc2o1 [present compound 1-18, 2-(3-ethylsulfonyl-5-trifluoromethylpyridine-2-yl)-5-(trifluoromethylsulfanyl)benzoxazole]	≥ 90	≥ 90	–	≥ 80	–	–	–	–
CCS(=O)(=O)c1cc(C(F)(F)F)cnc1-c1nc2cc([S+]([O-])C(F)(F)F)ccc2o1 (centres unmarked) [present compound 1-19, 2-(3-ethylsulfonyl-5-trifluoromethylpyridine-2-yl)-5-(trifluoromethylsulfinyl)benzoxazole]	≥ 90	≥ 90	≥ 90	≥ 80	–	–	–	100
CCS(=O)(=O)c1cc(C(F)(F)F)cnc1-c1nc2cc(S(=O)(=O)C(F)(F)F)ccc2o1 [present compound 1-20, 2-(3-ethylsulfonyl-5-trifluoromethylpyridine-2-yl)-5-(trifluoromethylsulfonyl)benzoxazole]	≥ 90	–	–	≥ 80	–	–	–	–
CCSc1cccnc1-c1nc2cc([S+]([O-])C(F)(F)F)ccc2o1 (centres unmarked) [present compound 1-63, 2-(3-ethylsulfanylpyridine-2-yl)-5-(trifluoromethylsulfinyl)benzoxazole]	≥ 90	–	≥ 90	≥ 80	100	–	–	–
CCSc1cc(C(F)(F)F)cnc1-c1nc2cc([S+]([O-])C(F)(F)F)cnc2o1 (centres unmarked) [present compound 1-65, 2-(3-ethylsulfanyl-5-trifluoromethylpyridine-2-yl)-6-(trifluoromethylsulfinyl)oxazolo[5,4-b]pyridine]	≥ 90	–	–	–	–	–	–	–
CCS(=O)(=O)c1ccc[n+]([O-])c1-c1nc2cc(S(=O)(=O)C(F)(F)F)ccc2o1 [present compound 1-76]	≥ 90	≥ 90	≥ 90	≥ 80	–	–	–	–
